According to US20250186456A1, “PYRIMIDINE-FUSED CYCLIC COMPOUND AND PREPARATION METHOD AND USE THEREOF” (Genfleet Therapeutics (Shanghai) Inc., priority 2021, published 2025):
Like-named read-outs stand apart in the source and are kept apart here.

Columns and labels:
Assay type in all cases: cell-based, human
[1] = system: AsPC-1 cells (KRAS G12D mutation); experiment: Cell proliferation inhibition assay, 3D, CellTiter-Glo 3D, AsPC-1; details: AsPC-1 3D sphere model, 5 days incubation
Text: AsPC-1 was purchased from ATCC; catalog No: CRL-1682; AGS was purchased from ATCC; catalog No: CRL-1739; RPMI1640 was purchased from Gibco; catalog No: 11875-093 2235123; F12K was purchased from Gibco; catalog No: 21127-022; FBS was purchased from Gibco; catalog No: 10099-141C; trypsin (containing EDTA) was purchased from Gibco; catalog No: 25200-072; CellTiter Glo-3D was purchased from Progema; catalog No: G9683; 384-well sphere plates were purchased from Corning; catalog No: 3830; white opaque 384-well plates were purchased from Corning; catalog No: 3570; cell counters were purchased from CHEMOMETEC; model: NC-200; microplate reader was purchased from PerkinElmer; model: Envison;
AsPC-1 is an endogenous human pancreatic cancer cell containing KRAS^G12D mutation, cultured in RPMI-1640 medium containing 10% FBS; AGS is a human gastric cancer cell line containing KRAS^G12D, cultured in F-12K medium containing 10% FBS. Cells in the logarithmic growth phase were taken, digested with trypsin (containing EDTA), collected, and counted. 800 AsPC-1 cells/well or 400 AGS cells/well, respectively, were seeded in a 384-well sphere plate and cultured overnight at 5% CO2 to establish a 3D cell model. 1000X stock solutions of compounds at a 3.16-fold concentration gradient of were prepared using DMSO, diluted 100-fold into a 10X compound stock solution using the medium described above. The 10X compound stock solution was added to each cell on 2nd day after cell seeding at a final concentration of 1X and a DMSO content of 0.1%. DMSO was used as a control in the experiment, and the medium was used as blank. After the addition of the compounds, the cells were incubated for 5 days. 30 μl of CellTiter-Glo work solution was added to each well, mixed well, and incubated for 30 minutes. After standing at room temperature for 30 minutes, 40 μl of the mixed solution was transferred to an opaque 384-well plate with a white clear bottom. Luminescence chemiluminescence value was read by a microplate reader, and the cell proliferation inhibition rate (IR (%)=(RLU control-RLU compound)/(RLU control-RLU blank)×100%) was calculated. The gradiently diluted concentration of the compounds and corresponding cell proliferation inhibition rate were fitted using XLFit four-parameters method, and the IC50 value was calculated. […] The results of some exemplary compounds are shown in Table 2 (“−” represents untested).

[2] = system: p-ERK in AGS cells (KRAS G12D mutation); experiment: Cell p-ERK assay (HTRF, Advance ERK phospho-T202/Y204 kit); details: AGS cells, 3 hours incubation with compound, HTRF, read-out: AGS p-ERK IC50
How it was run: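 Phospho-ERK (T202/Y204) measured by HTRF in lysates of human gastric AGS cells carrying KRAS G12D, after 3 h compound exposure at 0.1% DMSO over a 3.16-fold series. Percent inhibition relative to DMSO control and lysis-only blank; four-parameter curve fitting gave IC50.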

AGS cells (KRAS G12D) = experiment: Cell proliferation inhibition assay, 3D, CellTiter-Glo 3D, AGS; details: AGS 3D sphere model, 5 days incubation
How it was run: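 Spheroids (800 AsPC-1 or 400 AGS cells/well; RPMI-1640 or F-12K with 10% FBS) formed overnight, then were dosed on day 2 with a 3.16-fold series at 0.1% DMSO. After 5 days, viability was read by CellTiter-Glo 3D luminescence, and IC50 came from four-parameter fits of inhibition versus DMSO control and medium blank.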

| IC50 [1] [nM] | IC50 [2] [nM] | IC50 (AGS cells (KRAS G12D)) [nM] | SMILES | IC50 ([1]; Homo sapiens, ASPC1, 120 h) [nM] | IC50 ([2]; Homo sapiens) [nM] | IC50 (AGS cells (KRAS G12D); Homo sapiens, 120 h) [nM] |
| --- | --- | --- | --- | --- | --- | --- |
|  |  |  | C#Cc1cccc2cccc(-c3nc4c5c(nc(OCC67CC(=C)CN6C[C@H](F)C7)nc5c3F)N3C[C@H]5CC[C@H](N5)[C@H]3[C@H](C)O4)c12 (stereo partly drawn) [Example Z678, (5S,5aS,6S,9R)-2-(8-ethynylnaphthalen-1-yl)-1-fluoro-12-(((2R)-2-fluoro-6-methylenetetrahydro-1H-pyrrolizin-7a (5H)-yl)methoxy)-5-methyl-5a,6,7,8,9,10-hexahydro-5H-4-oxa-3,10a, 11, 13,14-pentaaza-6,9-methanonaphtho[1,8-ab]heptalene] | 73.5 | 12.4 | 100 |
|  |  |  | C#Cc1c(F)ccc2cccc(-c3nc4c5c(nc(OCC67CCCN6CCC7=C)nc5c3F)N3C[C@H]5CC[C@H](N5)[C@H]3[C@H](C)O4)c12 (stereo partly drawn) [Example Z600, (5S,5aS,6S,9R)-2-(8-ethynyl-7-fluoronaphthalen-1-yl)-1-fluoro-5-methyl-12-((1-methylenetetrahydro-1H-pyrrolizin-7a (5H)-yl)methoxy)-5a,6,7,8,9,10-hexahydro-5H-4-oxa-3,10a, 11, 13, 14-pentaaza-6,9-methanonaphtho[1,8-ab]heptalene] | 64.8 | 18.3 | 15.3 |
|  |  |  | C#Cc1c(F)ccc2cccc(-c3nc4c5c(nc(OCC67CCCN6CC(=C(F)F)C7)nc5c3F)N3C[C@H]5CC[C@H](N5)[C@H]3[C@H](C)O4)c12 (stereo partly drawn) [Example Z608, (5S,5aS,6S,9R)-12-((2-(difluoromethylene)tetrahydro-1H-pyrrolizin-7a (5H)-yl)methoxy)-2-(8-ethynyl-7-fluoronaphthalen-1-yl)-1-fluoro-5-methyl-5a,6,7,8,9,10-hexahydro-5H-4-oxa-3,10a, 11,13,14-pentaaza-6,9-methanonaphtho[1,8-ab]heptalene] | 146 | 28.4 | 82.3 |
|  |  |  | C#Cc1c(Cl)ccc2cccc(-c3nc4c5c(nc(OCC67CCCN6CC(=C)C7)nc5c3F)N3C[C@H]5CC[C@H](N5)[C@H]3[C@H](C)O4)c12 (stereo partly drawn) [Example Z593, (5S,5aS,6S,9R)-2-(7-chloro-8-ethynylnaphthalen-1-yl)-1-fluoro-5-methyl-12-((2-methylenetetrahydro-1H-pyrrolizin-7a (5H)-yl)methoxy)-5a,6,7,8,9,10-hexahydro-5H-4-oxa-3,10a, 11,13, 14-pentaaza-6,9-methanonaphtho[1,8-ab]heptalene] | 78.8 | 29 | 35.4 |
| 90.4 | 34.1 | 26.5 | C#Cc1c(F)ccc2cccc(-c3nc4c5c(nc(OCC67CC(=C)CN6CCC76CC6)nc5c3F)N3C[C@H]5CC[C@H](N5)[C@H]3[C@H](C)O4)c12 (stereo partly drawn) [Example Z602, (58,5aS,6S,9R)-2-(8-ethynyl-7-fluoronaphthalen-1-yl)-1-fluoro-5-methyl-12-((6′-methylenetetrahydrospiro[cyclopropane-1, 1′-pyrrolizin]-7a′ (5′H)-yl)methoxy)-5a,6,7,8,9,10-hexahydro-5H-4-oxa-3,10a,11,13,14-pentaaza-6,9-methanonaphtho[1,8-ab]heptalene] |  |  |  |
|  |  |  | C=C1CN2C[C@H](F)CC2(COc2nc3c4c(nc(-c5cccc(Cl)c5C(F)(F)F)c(F)c4n2)O[C@@H](C)[C@@H]2[C@@H]4CC[C@H](CN32)N4)C1 (stereo partly drawn) [Example Z682, (5S,5aS,6S,9R)-2-(3-chloro-2-(trifluoromethyl)phenyl)-1-fluoro-12-(((2R)-2-fluoro-6-methylenetetrahydro-1H-pyrrolizin-7a (5H)-yl)methoxy)-5-methyl-5a,6,7,8,9,10-hexahydro-5H-4-oxa-3,10a, 11,13,14-pentaaza-6,9-methanonaphtho[1,8-ab]heptalene] | 237 | 82 | 146 |
| 1.78 | 1.05 | 2.64 | C#Cc1cccc2cc(N)cc(-c3nc4c5c(nc(OCC67CC(=C)CN6CC(=C)C7)nc5c3F)N3C[C@H]5CC[C@H](N5)[C@H]3[C@H](C)O4)c12 [Example Z703, 4-((5S,5aS,6S,9R)-12-((2,6-dimethylenetetrahydro-1H-pyrrolizin-7a (5H)-yl)methoxy)-1-fluoro-5-methyl-5a,6,7,8,9,10-gexahydro-5H-4-oxa-3,10a,11,13,14-pentaaza-6,9-methanonaphtho[1,8-ab]heptalene-2-yl)-5-ethynylnaphthalen-2-amine] |  |  |  |
| 3.61 | 0.54 | 1.66 | C#Cc1cccc2cc(N)cc(-c3nc4c5c(nc(OCC67C[C@@H](F)CN6CCC7=C)nc5c3F)N3C[C@H]5CC[C@H](N5)[C@H]3[C@H](C)O4)c12 (stereo partly drawn) [Example Z730, 5-ethynyl-4-((5S,5aS,6S,9R)-1-fluoro-12-(((6R)-6-fluoro-1-methylenetetrahydro-1H-pyrrolizin-7a (5H)-yl)methoxy)-S-methyl-5a,6,7,8,9,10-hexahydro-5H-4-oxa-3,10a, 11, 13, 14-pentaaza-6,9-methanonaphtho[1,8-ab]heptalene-2-yl) naphthalen-2-amine] |  |  |  |
|  |  |  | CCc1cccc2cc(O)cc(-c3nc4c5c(nc(OC[C@@]67CCCN6C[C@H](F)C7)nc5c3F)N3C[C@H]5CC[C@H](N5)[C@H]3CO4)c12 [Example Z140-1, 5-Ethyl-4-((5aS,6S,9R)-1-Fluoro-12-(((2R,7aS)-2-Fluorotetrahydro-1H-Pyrrolizin-7a (5H)-Yl)Methoxy)-5a,6,7,8,9,10-Hexahydro-5H-4-Oxa-3,10a,11,13,14-Pentaaza-6,9-Methanonaphtho[1,8-Ab]Heptalen-2-Yl) Naphthalen-2-Ol] | 21.1 | 2.85 | 4 |
|  |  |  | C#Cc1cccc2cncc(-c3nc4c5c(nc(OCC67CC(=C)CN6C[C@H](F)C7)nc5c3F)N3C[C@H]5CC[C@H](N5)[C@H]3[C@H](C)O4)c12 (stereo partly drawn) [Example Z684, (5S,5aS,6S,9R)-2-(5-ethynylisoquinolin-4-yl)-1-fluoro-12-(((2R)-2-fluoro-6-methylenetetrahydro-1H-pyrrolizin-7a (5H)-yl)methoxy)-5-methyl-5a,6,7,8,9,10-hexahydro-5H-4-oxa-3,10a, 11,13,14-pentaaza-6,9-methanonaphtho[1,8-ab]heptalene] | 326 | 57.5 | 341 |
|  |  |  | C#Cc1c(F)ccc2cc(N)cc(-c3nc4c5c(nc(OCC67CCCN6CC(F)(F)C7)nc5c3F)N3C[C@H]5CC[C@H](N5)[C@H]3[C@H](C)O4)c12 (stereo partly drawn) [Example Z722, 4-((5S,5aS,6S,9R)-12-((2,2-difluorotetrahydro-1H-pyrrolizin-7a (5H)-yl)methoxy)-1-fluoro-5-methyl-5a,6,7,8,9,10-hexahydro-5H-4-oxa-3,10a, 11,13,14-pentaaza-6,9-methanonaphtho[1,8-ab]heptalene-2-yl)-5-ethynyl-6-fluoronaphthalen-2-amine] | 9.29 | 7.22 | 12.8 |
| 22.3 | 27.6 | 10.8 | C#Cc1c(F)ccc2cccc(-c3nc4c5c(nc(OCC67CC(=C)CN6CC6(CC6)C7)nc5c3F)N3C[C@H]5CC[C@H](N5)[C@H]3[C@H](C)O4)c12 (stereo partly drawn) [Example Z599] |  |  |  |
|  |  |  | C#Cc1c(F)ccc2cccc(-c3nc4c5c(nc(OC[C@@]67CCCN6C[C@H](F)C7)nc5c3F)N3C[C@H]5CC[C@H](N5)[C@H]3[C@H](C)O4)c12 [Example Z632, (5S,5aS,6S,9R)-2-(8-Ethynyl-7-Fluoronaphthalen-1-Yl)-1-Fluoro-12-(((2R,7aS)-2-Fluorotetrahydro-1H-Pyrrolizin-7a (5H)-Yl)Methoxy)-5-Methyl-5a,6,7,8,9,10-Hexahydro-5H-4-Oxa-3,10a,11,13,14-Pentaaza-6,9-Methanonaphtho[1,8-Ab]Heptalene] | 53.8 | 30.4 | 26.2 |
